# Patent publication US5470873A, “Diabetes prevention and treatment using gamma-pyrones” (University Technologies International, Inc., priority 1994, dated 1995)
# Values joined by “and” are separate entries in the source; they are usually repeats but may differ in a detail not shown here. Equal entries are not always repeated. “Also recorded” adds a separate entry of the source.
# What was measured:
# [1] = Blood glucose levels in NOD mice (glucose oxidase method); format: in vivo; details: NOD mice
# Method: NOD mice were dosed with maltol to evaluate its effect on the pathogenesis of type I diabetes. Mice received 5 mg maltol/mouse every other day from age 2 weeks until they were 20 weeks old. Maltol extracted from ginseng as described in Example 2 was used for the first 10 weeks, then maltol purchased from Sigma Co., St. Louis, MO was used thereafter. The mice were kept until they were 35 weeks old. Urine glucose was measured at 3-day intervals from 10 to 35 weeks of age. Urinary glucose and ketone levels were determined using Diastix and Ketostix reagent slips (Miles, Ontario, Canada). Individual mice were classified as being diabetic on the basis of positive glycosuria^38. […] In contrast, 78% of age-matched control mice (22 mice) spontaneously developed autoimmune diabetes. At 35 weeks of age, fasting (8 hours of fasting) and non-fasting blood glucose levels were measured. Blood was obtained from the retro-orbital venous plexus of fasting and nonfasting NOD mice. Glucose levels were measured enzymatically by the glucose oxidase method with o-dianisidine dihydrochloride as the reactive dye ^39-41 . The mean nonfasting blood glucose level of 35 ICR mice (nondiabetic control mice; NOD mice were derived from ICR mice) was 149±27 mg/dl. Any non-fasting mouse with a blood glucose level greater than 230 mg/dl (3 SD above the mean) was scored as diabetic. The mean fasting blood glucose level of 38 ICR mice was 137±28 mg/dl. Any fasting mouse with a blood glucose level greater than 221 mg/dl (3 SD above the mean) was scored as diabetic.
# [2] = Pancreatic insulin content (immunoreactive insulin, radioimmunoassay) in NOD mice; format: in vivo; details: NOD mice
# Method: Insulin was extracted from the pancreas of non-obese diabetic (NOD) mouse by known methods ^33,34. Briefly, deep frozen pancreatic tissue (50% of each pancreas) was placed into phosphate buffered saline (PBS) and then extraction solution A (380 ml absolute alcohol, 20 ml H2 O, 8 ml concentrated HCl and some drops of alcoholic phenol red) was added. This mixture was homogenized with polytron type PT 10-20-[…] in glass tubes (15×125 mm) for 30 seconds in position 5. The homogenized material in the tubes was incubated at 4° C. for 10 hours. At the end of the incubation period, the homogenized material was centrifuged at 800 g for 5 minutes for clarification. The supernatant was saved. The pellet was re-extracted with 1 ml of extraction solution B (356 ml absolute alcohol, 124 ml H2 O and 7.5 ml HCl). The pellet in extraction solution B was incubated for 4 hours at 4° C. and then homogenized with a polytron as described above. The homogenized material was centrifuged at 800 g for 5 minutes. The supernatant was pooled with the supernatant from the first extraction. The pooled supernatant was neutralized with concentrated NH40 H (about 10 μl ) until the phenol red turned to purple. The neutralized supernatant was precipitated at 4° C. and then centrifuged at 800 g for 5 min. The supernatant, which contains insulin, was used for the measurement of insulin by radioimmunoassay. The concentration of immunoreactive insulin (IRI) in the pancreas from DPD-treated and untreated NOD mice was measured by radioimmunoassay techniques ^42-44 using mouse insulin as a standard. Briefly, the extracted samples from NOD mice were mixed with […], and anti-insulin antibody. The mixed materials were incubated for 2 hours at room temperature. At the end of the incubation period, anti-guinea pig IgG raised in sheep was added and the mixture was incubated for 30 minutes at room temperature. At the end of the incubation, the samples were centrifuged at 1500 g for 10 minutes. The supernatant was completely removed. The radioactivity of the pellets was measured. The percent of activity was determined by the following formula: [formula] On the basis of % activity in standards, a standard curve was constructed. The concentration of each unknown sample from maltol-treated or untreated NOD pancreas was read on the basis of the standard curve. […] The maltol-treated mice have insulin levels that are similar to the non-diabetic, untreated animals. About 75% of the maltol-treated mice have insulin levels over 80 μg/g pancreas and about 25% have insulin levels between 55-75 μg/g pancreas.
# pancreatic beta cells = assay: Destruction of pancreatic beta cells detected by fluorescein labelled anti-insulin antibody; format: in vivo, NOD mice; design: key to Diabetes: "+" indicates "yes"; "-" indicates "no"
# Method: Fluorescein isothiocyanate-labelled anti-insulin antibody was prepared as described previously 45. Briefly, gamma globulin that was prepared by immunizing guinea pigs with glutaraldehyde polymerized porcine insulin and purified by Sephadex G-200 chromatography was purchased from Index Corp., Glenwood, Ill, USA. This material was labelled with FITC. Unconjugated FITC was removed by dialysis against 0.01M PBS (pH 7.5) and by gel filtration through a Sephadex G-25. The labelled gamma globulin was subsequently absorbed with acetone-treated mouse liver powder to eliminate nonspecific fluorescence. Pancreatic sections (from 25% of each pancreas) prepared from maltol-treated and untreated NOD mice were stained with FITC-labelled anti-insulin antibody and examined under a fluorescent microscope as described elsewhere 47.48. Briefly, pancreatic sections on the slides were flooded with FITC-labelled anti-insulin antibody and incubated in a humidity chamber overnight at 4° C. in the dark. The slides were then washed in three changes of cold PBS for a total of 20 min to remove any unattached antibody, mounted with Elvanol and observed with an Olympus fluorescence microscope ^45. As it is difficult to determine whether the lymphocytes observed in the pancreatic islets are contributing to beta cell destruction, another method was used to determine whether beta cells from maltol-treated or untreated NOD mice were destroyed or not. Sections of pancreatic islets were stained with a fluorescein-labelled anti-insulin antibody and the number of insulin-containing beta cells in the islets was estimated.
# [3] = 30% to 69% of beta cell destruction, individual DPD-treated NOD mice (animal 1-5)
# [4] = less than 30% of beta cell destruction, individual DPD-treated NOD mice (animal 1-5)
# [5] = no destruction of beta cells, individual DPD-treated NOD mice (animal 1-5)
# [6] = over 70% of beta cell destruction, individual DPD-treated NOD mice (animal 1-5)
smiles,measurement,setting,value
"Cc1occc(=O)c1O [DPD, maltol]",Hyperglycemia / clinical diabetes by blood glucose (in words),[1],do not exhibit hyperglycemia; also recorded: prevents clinical diabetes
same,Pancreatic insulin / protection from beta cell destruction (in words),[2],prevents depression of pancreatic insulin levels
same,"Moderate Destruction of beta cells, islets / islets examined",pancreatic beta cells; [3],4/16 and 5/17 and 3/18 and 4/19
same,"Moderate Destruction of beta cells, percent of islets",pancreatic beta cells; [3],25% and 29% and 17% and 21%
same,Diabetes,"pancreatic beta cells; Table 3, individual DPD-treated NOD mice",-
same,Destruction of pancreatic beta cells (in words),"pancreatic beta cells; compared to untreated, diabetic NOD mice",significantly lower
same,"Mild destruction, share of examined islets",pancreatic beta cells; group of DPD-treated NOD mice,45%
same,"Moderate destruction, share of examined islets",pancreatic beta cells; group of DPD-treated NOD mice,23%
same,"No destruction, share of examined islets",pancreatic beta cells; group of DPD-treated NOD mice,12%
same,"Severe destruction, share of examined islets",pancreatic beta cells; group of DPD-treated NOD mice,20%
same,"Mild Destruction of beta cells, islets / islets examined",pancreatic beta cells; [4],7/16 and 7/17 and 9/18 and 9/19
same,"Mild Destruction of beta cells, percent of islets",pancreatic beta cells; [4],43% and 41% and 50% and 47%
same,"Intact, islets / islets examined",pancreatic beta cells; [5],2/16 and 2/17 and 2/18 and 2/19
same,"Intact, percent of islets",pancreatic beta cells; [5],13% and 12% and 11%
same,"Severe Destruction of beta cells, islets / islets examined",pancreatic beta cells; [6],3/16 and 3/17 and 4/18 and 4/19
same,"Severe Destruction of beta cells, percent of islets",pancreatic beta cells; [6],19% and 18% and 22% and 21%
